6 compounds from patent US20240293362A1, “Soluble Epoxide Hydrolase Inhibitors and Use Thereof” (Board of Trustees of Michigan State University, priority 2021, published 2024) can be followed below.

By melting point is commonly meant the temperature, or range, at which the solid turns liquid. Compound `CCC(=O)NCC1CCN(C(=O)Nc2ccc(OC(F)(F)F)cc2)C1` (stereo not drawn) [Example 12, 3-(propanamidomethyl)-N-[4-(trifluoromethoxy)phenyl]pyrrolidine-1-carboxamide] came in with a melting point of 166 to 167 °C.
The figure for `CCC(=O)N1CCC(NC(=O)Nc2ccc(OC(F)(F)F)cc2)C(F)(F)C1` (stereo not drawn) [Example 44, 1-(3,3-difluoro-1-propionylpiperidin-4-yl)-3-(4-(trifluoromethoxy)phenyl)urea] is 223 to 224 °C.
The figure for `CCC(=O)N1CC[C@@H](NC(=O)Nc2ccc(OC(F)(F)F)cc2)[C@@H](F)C1` [Example 45, 1-((3S,4R)-3-fluoro-1-propionylpiperidin-4-yl)-3-(4-(trifluoromethoxy)phenyl)urea] is 231 to 232 °C; for `CCC(=O)N1CC[C@H](NC(=O)Nc2ccc(OC(F)(F)F)cc2)[C@H](F)C1` [Example 46, 1-((3R,4S)-3-fluoro-1-propionylpiperidin-4-yl)-3-(4-(trifluoromethoxy)phenyl)urea] it is 245 to 246 °C.
The figure for `CCC(=O)N1CC[C@H](NC(=O)Nc2ccc(OC(F)(F)F)cc2)[C@@H](F)C1` [Example 47, 1-((3S,4S)-3-fluoro-1-propionylpiperidin-4-yl)-3-(4-(trifluoromethoxy)phenyl)urea] is 180 to 181 °C; for `CCC(=O)N1CC[C@H](NC(=O)Nc2ccc(OC(F)(F)F)cc2)C[C@H]1C` [Example 48, 1-((2R,4S)-2-methyl-1-propionylpiperidin-4-yl)-3-(4-(trifluoromethoxy)phenyl)urea] it is 175 to 176 °C.
